Laboratory results reported in patent US6547971B2 (priority 2000, dated 2003).
Several values for one entry are separate records, joined by “and”; a condition that tells them apart may be missing. Equal values may be shown once.

Test system: spores of Bacillus cereus
Type: cell-based

With C[C@H](N)C(=O)O [L-alanine] the CFU was 72 and 85 and the “induction of spore germination” value (control samples A and B) was “did induce germination”.
